Measurements: patent publication US8138304B2, “Neural regeneration peptides and formulations thereof” (Neuren Pharmaceuticals Limited, priority 2005, dated 2012)
Where no end group is shown, it is not given here.

Tested on: cerebellar cells
Assay: Cerebellar microexplant proliferation assay (BrdU)
Format: cell-based, Wistar rat
Procedure: Laminated cerebellar cortices of the two hemispheres were explanted from a P3, P4, P7 or P8 Wistar rat, cut into small pieces in GBSS with 0.65% D(+)glucose solution, and triturated by a 0.4 mm gauge needle and subsequently pressed through a 125 μm pore size sieve. The obtained microexplants were centrifuged (60×g) 2 times for a medium exchange into serum-free BSA-supplemented START V-medium (Biochrom). Finally, the microexplants were reconstituted in 500 μl STARTV-medium. For culturing, 38 μl of the cell suspension was incubated for 1 hour on a poly-D-lysine-coated cover slip in a 35 mm Petri dish under an atmosphere comprising 5% CO2 in air and 100% humidity at 34° C. Subsequently, the injuring toxins (as described below), NRPs and 1 ml of STARTV-medium were added, and the cultures were evaluated after 2-3 days of culture.
Toxicological and drug administration experiments were designed such that 1/100 parts of toxin and neuroprotective drug were administered simultaneously to the freshly prepared cerebellar microexplants. Glutamate was prepared as a 50 mM stock solution in MilliQ water while 50 mM 3-nitropropionic acid was pH-adjusted (pH 6.8-7.2) in MilliQ water. The concentrations of the oxidative stress inducing toxin, 3-nitropropionic acid (3-NP), and the excitotoxin, glutamate, in the assay were 0.5 mM each. Lyophilized peptides were reconstituted in PBS or 100 μg/ml human transferrin as a 10 μM stock solution. Subsequently, serial dilutions were made. Cerebellar microexplants were cultivated for 48-72 hours at 34° C., 5% CO2 in air and 100% humidity before they were fixed by increasing amounts of paraformaldehyde (0.4%, 1.2%, 3% and 4%—each treatment 2-3 min).
Using the toxins described above, cerebellar explants were exposed for 24 hours, at the beginning of culturing to dilutions of NRP (survival assay) or NRP and 0.1 μM BrdU (proliferation assay). Subsequently, 80% of the medium was changed without addition of new toxins and NRPs. […]
For statistical analysis of proliferation BrdU-positive nuclei were counted. Statistical significance was measured by Student's t-test.

Substance: REGRRAAPGRAGG-NH2 (listed as Homo sapiens) [SEQ ID NO: 1, 13-mer NRP analogue]
- proliferation rate compared to the uninjured vehicle (1 pM, BrdU): increased the proliferation rate in these cultures significantly
- proliferation compared against injured cells without NRP (p<0.01, SEQ ID NO: 1 at 1 pM, SEQ ID NO: 2 at 100 pM): highly proliferation-inducing
